Assay results as given in patent US20050124562A1, “Bis-quinazoline compounds for the treatment of bacterial infections” (priority 2003, published 2005).

These compounds were tested on S. aureus, E. faecalis, S. pyogenes and S. pneumoniae (assay: Broth microdilution MIC (NCCLS), gram-positive strains). Settings: range against some strains of S. aureus, E. faecalis, S. pyogenes and S. pneumoniae; read-out: MIC.
Assay type: cell-based
Description: Representative bis-quinazolines were tested for antibacterial activity using the […] microdilution method to determine their minimum inhibitory concentrations (MICs). All compounds were tested using standard methods in accordance with NCCLS guidelines (National Committee for Clinical Laboratory Standards. 2003. Methods for dilution antimicrobial susceptibility testing for bacteria that grow aerobically. Approved Standard M-7 A-6, NCCLS, Wayne, Pa.). The bacterial strains used in the susceptibility tests were obtained from the American Type Culture Collection (ATCC) and included resistant phenotypes such as oxacillin-resistant S. aureus (ORSA) and vancomycin-resistant enterococci (VRE). The minimum bactericidal concentrations (MBCs) were determined for selected organisms. The effect of protein binding on the antibacterial activity of representative bis-quinazolines were determined by conducting MIC tests in the presence of human serum.

Compound | MIC [µg/mL]
COc1cc(OC)c2nc(Nc3nc(O)c4c(OC)c(OC)ccc4n3)nc(C)c2c1.O=C(O)C(F)(F)F [Example 134, 2-(6,8-Dimethoxy-4-methyl-quinazolin-2-ylamino)-5,6-dimethoxy-quinazolin-4-ol TFA salt] | 0.06 to 16
COc1cc(OC)c2nc(Nc3nc(O)c4c(OC)c(OC)ccc4n3)nc(C)c2c1.Cl [Example 135, 2-(6,8-Dimethoxy-4-methyl-quinazolin-2-ylamino)-5,6-dimethoxy-quinazolin-4-ol HCl salt] | 0.06 to 16
COc1cc2nc(Nc3nc(O)c4cc(OCCO)ccc4n3)nc(C)c2cc1OC.O=C(O)C(F)(F)F [Example 136, 2-(6,7-Dimethoxy-4-methyl-quinazolin-2-ylamino)-6-(2-hydroxy-ethoxy)-quinazolin-4-ol trifluoroacetate salt] | 0.06 to 16
COc1cc(OC)c2nc(Nc3nc(O)c4cc(OCCO)ccc4n3)nc(C)c2c1.O=C(O)C(F)(F)F [Example 137, 2-(6,8-Dimethoxy-4-methyl-quinazolin-2-ylamino)-6-(2-hydroxy-ethoxy)-quinazolin-4-ol trifluoroacetate salt] | 0.06 to 16
COc1cc2nc(Nc3nc(O)c4cc(OCCN(C)CCO)ccc4n3)nc(C)c2cc1OC.O=C(O)C(F)(F)F [Example 139, 2-(6,7-Dimethoxy-4-methyl-quinazolin-2-ylamino)-6-{2-[(2-hydroxy-ethyl)-methyl-amino]-ethoxy}-quinazolin-4-ol trifluoroacetate salt] | 0.06 to 16
COc1cc(OC)c2nc(Nc3nc(O)c4cc(OCCN5CCOCC5)ccc4n3)nc(C)c2c1.O=C(O)C(F)(F)F [Example 141, 2-(6,8-Dimethoxy-4-methyl-quinazolin-2-ylamino)-6-(2-morpholin-4-yl-ethoxy)-quinazolin-4-ol trifluoroacetate salt] | 0.06 to 16
CCN(CCO)CCOc1ccc2nc(Nc3nc(C)c4cc(OC)cc(OC)c4n3)nc(O)c2c1.O=C(O)C(F)(F)F [Example 167, 2-(6,8-Dimethoxy-4-methyl-quinazolin-2-ylamino)-6-{2-[ethyl-(2-hydroxy-ethyl)-amino]-ethoxy}-quinazolin-4-ol trifluoroacetate salt] | 0.06 to 16
COc1cc(OC)c2nc(Nc3nc(O)c4cc(OCCN5CCCC5CO)ccc4n3)nc(C)c2c1.O=C(O)C(F)(F)F (stereo not drawn) [Example 168, 2-(6,8-Dimethoxy-4-methyl-quinazolin-2-ylamino)-6-[2-(2-hydroxymethyl-pyrrolidin-1-yl)-ethoxy]-quinazolin-4-ol trifluoroacetate salt] | 0.06 to 16
COc1cc2nc(Nc3nc(O)c4cc(OCCN5CCCCC5CO)ccc4n3)nc(C)c2cc1OC.O=C(O)C(F)(F)F (stereo not drawn) [Example 173, 2-(6,7-Dimethoxy-4-methyl-quinazolin-2-ylamino)-6-[2-(2-hydroxymethyl-piperidin-1-yl)-ethoxy]-quinazolin-4-ol trifluoroacetate salt] | 0.06 to 16
COc1cc2nc(Nc3nc(O)c4cc(OCCn5cnnc5)ccc4n3)nc(C)c2cc1OC.O=C(O)C(F)(F)F [Example 174, 2-(6,7-Dimethoxy-4-methyl-quinazolin-2-ylamino)-6-(2-[1,2,4]triazol-4-yl-ethoxy)-quinazolin-4-ol trifluoroacetate salt] | 0.06 to 16
COc1cc2nc(Nc3nc(O)c4cc(OCCN5CCN(CCO)CC5)ccc4n3)nc(C)c2cc1OC.O=C(O)C(F)(F)F [Example 175, 2-(6,7-Dimethoxy-4-methyl-quinazolin-2-ylamino)-6-{2-[4-(2-hydroxy-ethyl)-piperazin-1-yl]-ethoxy}-quinazolin-4-ol trifluoroacetate salt] | 0.06 to 16
COc1cc2nc(Nc3nc(O)c4cc(OCCNNCCO)ccc4n3)nc(C)c2cc1OC.O=C(O)C(F)(F)F [Example 176, 2-(6,7-Dimethoxy-4-methyl-quinazolin-2-ylamino)-6-{2-[N′-(2-hydroxy-ethyl)-hydrazino]-ethoxy}-quinazolin-4-ol trifluoroacetate salt] | 0.06 to 16
